Experimental data from ChEMBL document CHEMBL3431459, “Roche carnitine palmitoyltransferase modulator screening data (supplementary data associated with the publication CHEMBL2216752)”.
≈ marks a conversion by molar mass, not a printed value.

How the values were obtained:
[1] = biological target: T1, Carnitine O-palmitoyltransferase 1, muscle isoform (Homo sapiens, UniProt Q92523); experiment: SUPPLEMENTARY: Inhibition of Carnitine palmitoyltransferase 1, muscle isoform; parameters: species or system Muscle tissue
T1 sequence (Q92523 whole entry): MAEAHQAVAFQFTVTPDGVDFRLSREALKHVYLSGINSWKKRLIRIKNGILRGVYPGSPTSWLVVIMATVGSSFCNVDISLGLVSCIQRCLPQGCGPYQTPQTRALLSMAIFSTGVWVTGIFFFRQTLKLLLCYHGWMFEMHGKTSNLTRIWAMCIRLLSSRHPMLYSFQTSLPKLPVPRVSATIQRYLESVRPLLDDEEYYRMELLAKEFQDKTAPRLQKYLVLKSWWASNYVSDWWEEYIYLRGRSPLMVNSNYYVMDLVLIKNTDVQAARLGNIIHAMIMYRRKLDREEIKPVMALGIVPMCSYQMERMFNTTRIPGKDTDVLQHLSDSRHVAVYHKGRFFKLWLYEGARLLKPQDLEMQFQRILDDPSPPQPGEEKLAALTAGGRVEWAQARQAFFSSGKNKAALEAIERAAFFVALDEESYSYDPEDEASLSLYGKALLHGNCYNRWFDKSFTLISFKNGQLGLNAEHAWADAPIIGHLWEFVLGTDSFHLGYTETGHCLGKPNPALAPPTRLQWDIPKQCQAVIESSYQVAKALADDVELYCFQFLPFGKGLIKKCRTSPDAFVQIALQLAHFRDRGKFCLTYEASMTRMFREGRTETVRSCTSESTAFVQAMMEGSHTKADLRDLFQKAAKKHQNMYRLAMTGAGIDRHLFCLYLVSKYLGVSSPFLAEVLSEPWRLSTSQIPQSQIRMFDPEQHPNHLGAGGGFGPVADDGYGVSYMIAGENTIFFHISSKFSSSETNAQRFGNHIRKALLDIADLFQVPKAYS

[2] = biological target: T2, Carnitine O-palmitoyltransferase 2, mitochondrial (Homo sapiens, UniProt P23786); experiment: (§1) SUPPLEMENTARY: Inhibition of Carnitine palmitoyltransferase 2
T2 sequence (P23786 whole entry): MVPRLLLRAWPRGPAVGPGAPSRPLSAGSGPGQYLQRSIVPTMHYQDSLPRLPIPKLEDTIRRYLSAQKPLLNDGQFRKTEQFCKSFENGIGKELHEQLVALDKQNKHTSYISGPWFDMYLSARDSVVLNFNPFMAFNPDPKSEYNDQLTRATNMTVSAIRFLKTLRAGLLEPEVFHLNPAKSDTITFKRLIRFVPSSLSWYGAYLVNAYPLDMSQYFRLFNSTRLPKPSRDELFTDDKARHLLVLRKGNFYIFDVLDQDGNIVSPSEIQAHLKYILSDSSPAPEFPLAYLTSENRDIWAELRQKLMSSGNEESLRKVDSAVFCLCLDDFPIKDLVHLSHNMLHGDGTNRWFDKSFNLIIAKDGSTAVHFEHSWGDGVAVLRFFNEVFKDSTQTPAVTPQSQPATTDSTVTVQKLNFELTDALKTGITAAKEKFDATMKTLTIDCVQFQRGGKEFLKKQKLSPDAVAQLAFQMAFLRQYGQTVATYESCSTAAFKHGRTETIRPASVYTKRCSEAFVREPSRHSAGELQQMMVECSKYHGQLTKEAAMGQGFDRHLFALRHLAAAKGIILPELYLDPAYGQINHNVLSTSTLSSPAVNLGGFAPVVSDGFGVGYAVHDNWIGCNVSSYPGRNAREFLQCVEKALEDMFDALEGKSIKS

[3] = biological target: T3, Carnitine O-palmitoyltransferase 2, mitochondrial (Rattus norvegicus, UniProt P18886); experiment: as §1
T3 sequence (P18886 whole entry): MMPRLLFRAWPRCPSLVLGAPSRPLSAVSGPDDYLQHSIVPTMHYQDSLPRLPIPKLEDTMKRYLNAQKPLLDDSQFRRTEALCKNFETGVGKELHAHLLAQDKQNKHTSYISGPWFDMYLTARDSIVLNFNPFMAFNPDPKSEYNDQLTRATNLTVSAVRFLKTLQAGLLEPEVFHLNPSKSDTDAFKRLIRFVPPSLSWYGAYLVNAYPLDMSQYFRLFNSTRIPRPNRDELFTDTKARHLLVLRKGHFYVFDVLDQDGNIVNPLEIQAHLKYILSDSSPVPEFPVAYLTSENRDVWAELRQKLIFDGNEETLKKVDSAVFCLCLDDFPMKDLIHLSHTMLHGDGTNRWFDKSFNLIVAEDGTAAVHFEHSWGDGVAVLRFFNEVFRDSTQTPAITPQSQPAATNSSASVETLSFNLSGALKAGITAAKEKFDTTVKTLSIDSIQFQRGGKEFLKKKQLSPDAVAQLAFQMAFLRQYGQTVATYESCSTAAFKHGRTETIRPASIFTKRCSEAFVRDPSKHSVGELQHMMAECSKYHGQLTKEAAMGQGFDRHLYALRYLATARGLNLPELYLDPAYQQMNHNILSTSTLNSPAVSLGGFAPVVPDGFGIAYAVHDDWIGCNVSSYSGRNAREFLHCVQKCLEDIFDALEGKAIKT

[4] = biological target: T4, Carnitine O-palmitoyltransferase 1, liver isoform (Homo sapiens, UniProt P50416); experiment: (§2) SUPPLEMENTARY: Inhibition of Carnitine palmitoyltransferase 1, liver isoform
T4 sequence (P50416 whole entry): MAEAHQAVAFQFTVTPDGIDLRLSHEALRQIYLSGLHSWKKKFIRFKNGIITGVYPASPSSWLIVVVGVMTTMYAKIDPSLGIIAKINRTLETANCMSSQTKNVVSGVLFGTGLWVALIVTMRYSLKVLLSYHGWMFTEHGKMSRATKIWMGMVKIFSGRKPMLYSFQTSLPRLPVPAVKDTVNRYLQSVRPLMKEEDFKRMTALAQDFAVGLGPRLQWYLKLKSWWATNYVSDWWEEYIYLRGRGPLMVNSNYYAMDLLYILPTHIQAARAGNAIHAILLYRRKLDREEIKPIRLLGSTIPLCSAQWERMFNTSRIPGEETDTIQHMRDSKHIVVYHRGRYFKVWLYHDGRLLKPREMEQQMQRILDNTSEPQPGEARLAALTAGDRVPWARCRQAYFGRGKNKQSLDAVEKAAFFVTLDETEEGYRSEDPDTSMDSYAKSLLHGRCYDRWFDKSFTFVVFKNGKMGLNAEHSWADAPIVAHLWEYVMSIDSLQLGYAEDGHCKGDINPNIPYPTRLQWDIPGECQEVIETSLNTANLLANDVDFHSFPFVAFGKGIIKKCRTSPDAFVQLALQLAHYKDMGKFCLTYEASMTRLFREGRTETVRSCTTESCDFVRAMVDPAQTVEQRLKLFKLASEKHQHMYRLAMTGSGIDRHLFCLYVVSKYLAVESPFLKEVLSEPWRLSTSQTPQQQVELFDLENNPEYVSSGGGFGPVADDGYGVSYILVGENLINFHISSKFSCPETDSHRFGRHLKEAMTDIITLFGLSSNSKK

[5] = biological target: T5, Carnitine O-palmitoyltransferase 1, liver isoform (Rattus norvegicus, UniProt P32198); experiment: as §2
T5 sequence (P32198 whole entry): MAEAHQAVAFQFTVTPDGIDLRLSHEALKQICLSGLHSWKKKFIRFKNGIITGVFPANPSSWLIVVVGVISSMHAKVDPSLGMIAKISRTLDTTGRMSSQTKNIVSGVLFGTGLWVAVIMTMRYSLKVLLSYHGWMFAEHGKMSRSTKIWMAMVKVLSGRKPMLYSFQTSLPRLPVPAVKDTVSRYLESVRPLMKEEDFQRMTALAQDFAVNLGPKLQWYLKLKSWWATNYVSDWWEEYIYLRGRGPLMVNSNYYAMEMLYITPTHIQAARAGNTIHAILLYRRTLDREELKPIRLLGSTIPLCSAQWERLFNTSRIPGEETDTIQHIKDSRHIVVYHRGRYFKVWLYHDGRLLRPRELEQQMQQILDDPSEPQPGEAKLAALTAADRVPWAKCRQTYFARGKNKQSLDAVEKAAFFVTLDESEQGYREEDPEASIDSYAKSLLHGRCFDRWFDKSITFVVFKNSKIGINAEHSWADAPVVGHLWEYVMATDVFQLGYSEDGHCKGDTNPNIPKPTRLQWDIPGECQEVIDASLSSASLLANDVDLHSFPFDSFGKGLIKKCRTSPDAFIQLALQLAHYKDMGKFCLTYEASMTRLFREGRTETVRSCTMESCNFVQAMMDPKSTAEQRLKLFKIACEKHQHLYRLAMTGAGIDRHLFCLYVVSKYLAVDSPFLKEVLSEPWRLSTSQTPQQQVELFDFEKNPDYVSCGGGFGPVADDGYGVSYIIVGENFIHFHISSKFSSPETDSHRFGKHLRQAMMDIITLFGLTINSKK

[6] = SUPPLEMENTARY: Lyophilisation Solubility Assay (LYSA); assay type: physicochemical; conditions: read-out: Kinetic_solubility
[7] = SUPPLEMENTARY: Lipophilicity (log D) Determination by high-throughput shake-flask; assay type: physicochemical; conditions: octanol/water
[8] = SUPPLEMENTARY: PAMPA permeability assay; assay type: physicochemical; conditions: read-out: Permeability

IC50 [1] [µM]	IC50 [2] [µM]	IC50 [3] [µM]	IC50 [4] [µM]	IC50 [5] [µM]	solubility kinetic [6] [µg/mL]	logD [7]	Papp [8] [×10⁻⁶ cm/s]	Structure (SMILES)
37	1.86	> 100	0.0598	0.0575	2 (≈ 4.01 µM)	0.1	0.49	Cc1cc(C)cc(S(=O)(=O)N2CC[S+]([O-])c3ccc(C(=O)Nc4ccc(C(=O)O)cc4)cc32)c1 (stereo not given)
4.26	> 100	> 100	0.197	0.527	> 566	-1.41	0.13	COc1ccc(Cl)cc1S(=O)(=O)N(C)c1cc(C(=O)Nc2ccn(CC(=O)O)n2)cc2c1OCO2
29.7	> 100	> 100	0.0858	1.43	< 1	3.2	5.37	O=C(COc1ccccc1)N1CCCC[C@@H]1c1noc(C2(C(F)(F)F)CC2)n1
> 100	> 100	> 100	0.278	> 10	< 1	> 3	0.3	COc1ccc(Cl)cc1CN1C(=O)OC(C)(C)c2ccc(C(=O)Nc3nccs3)cc21
> 100	> 100	> 100	0.0866	0.0838	8 (≈ 20.1 µM)	3.01	4.11	NS(=O)(=O)c1ccc(C#C[C@H]2CCCCN2C(=O)COc2ccccc2)cc1
> 100	> 100	> 100	0.03	0.0126	3 (≈ 5.44 µM)	2.68	1.9	COc1ccc(Cl)cc1S(=O)(=O)N1CCS(=O)(=O)c2ccc(C(=O)Nc3ccc(C(=O)O)cc3)cc21
2.21	> 100	> 100	0.206	0.0828	61 (≈ 122 µM)	1.1	1.98	COc1ccc(Cl)cc1S(=O)(=O)n1ccc2ccc(C(=O)Nc3ccc(CC(=O)O)cc3)cc21
5.49	2.89	6.56	0.0561	0.0407	13 (≈ 26.6 µM)	0.65	2.93	COc1ccc(Cl)cc1S(=O)(=O)N1COc2ccc(C(=O)Nc3ccc(C(=O)O)cc3)cc21
1.42	0.698	2.13	0.0757	0.0791	3 (≈ 5.99 µM)	3.01	2.83	COc1ccc(Cl)cc1S(=O)(=O)N1C[C@H](C)c2ccc(C(=O)Nc3ccc(C(=O)O)cc3)cc21
> 100	> 100	> 100	0.0438	0.0205	< 1	3.4	0.06	COc1ccc(Cl)cc1S(=O)(=O)c1cn(CCO)c2ccc(C(=O)Nc3ccccc3)cc12
